# From paper PMC9772450, “Gel-forming antagonist provides a lasting effect on CGRP-induced vasodilation” (Frontiers in Pharmacology, 2022)
# Non-standard residues stand in square brackets, D forms with d. Residues, ends and D or L forms follow the SMILES beside them. *: point of attachment. Met(O2) = CS(=O)(=O)CC[C@H](N)C(=O)O; Palmitoyl = CCCCCCCCCCCCCCCC(=O)*; Hyp = O=C(O)[C@@H]1C[C@@H](O)CN1; Cit = NC(=O)NCCC[C@H](N)C(=O)O; Orn = NCCC[C@H](N)C(=O)O; Dab = NCC[C@H](N)C(=O)O; Abu = CC[C@H](N)C(=O)O; Aib = CC(C)(N)C(=O)O; Ahx = NCCCCCC(=O)O; βAla = NCCC(=O)O
# Legend:
# [1] = Visual (tube-tapping) assay of gel-forming capability and solubility; assay type: physicochemical; parameters: key to Gel-forming ability: Y: can form a liquid gel; N: lacks the ability to efficiently form a liquid gel; conditions: visual inspection of 11% peptide solutions, tube-tapping, 20 min after mixing
# Description: To evaluate the ability of peptides to form gels in situ, we initially determined this tendency qualitatively based on visual examinations of peptide solutions using a tube-tapping method. In addition, we quantitatively determined the viscosity of select peptide solutions using a viscometer (Rheosense Inc; http://www.rheosense.com/products/viscometers) ([Yan and Pochan, 2010]). In the visual assay, aliquots of peptides were dissolved in an aqueous solution (i.e., de-ionized water, saline, or 5% glucose solution). The peptide that dissolved instantly and stayed as a clear solution without obvious macroscopic change in viscosity at 20 min after mixing was considered soluble. If macroscopic particles of peptides remained in the solution at 20 min after mixing, the peptide was considered insoluble.
# [2] = biological target: T1, CLR/RAMP1 receptor (Homo sapiens, UniProt O60894+Q16602); assay: HitHunter cAMP XS+ CALCRL-RAMP1 cAMP assay, antagonist mode; assay type: cell-based; conditions: for Maximum response: antagonist mode, β-CGRP at EC80, 10-point curve, duplicate
# T1 construct: host or cells: CHO-K1 (cAMP Hunter cell line)
# T1 sequence (Q16602 23-461): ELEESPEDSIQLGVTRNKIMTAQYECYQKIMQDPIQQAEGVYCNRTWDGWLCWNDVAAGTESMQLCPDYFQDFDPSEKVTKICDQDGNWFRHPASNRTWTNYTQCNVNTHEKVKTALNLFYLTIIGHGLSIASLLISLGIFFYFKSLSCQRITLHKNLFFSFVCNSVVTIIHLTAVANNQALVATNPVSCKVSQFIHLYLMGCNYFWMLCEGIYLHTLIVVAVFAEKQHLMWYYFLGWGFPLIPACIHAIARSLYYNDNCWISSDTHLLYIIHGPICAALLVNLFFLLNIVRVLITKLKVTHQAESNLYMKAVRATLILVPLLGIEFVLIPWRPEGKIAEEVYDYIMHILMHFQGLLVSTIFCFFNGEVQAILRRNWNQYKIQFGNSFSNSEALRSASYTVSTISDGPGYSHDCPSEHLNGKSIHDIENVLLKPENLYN
# T1 sequence (O60894 27-148): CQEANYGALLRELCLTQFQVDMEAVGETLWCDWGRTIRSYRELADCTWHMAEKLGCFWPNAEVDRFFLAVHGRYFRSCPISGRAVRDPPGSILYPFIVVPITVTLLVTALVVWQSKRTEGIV
# Description: The assay of the antagonistic activity of analogs was conducted by the Eurofins Discoverx using the HitHunter cAMP XS + assay as described earlier ([Bradley and McLoughlin, 2009]; [Chang and Hsu, 2019]). The dose-dependent inhibitory effect of antagonists was studied in duplicate, at 10 different concentrations. Determination of the half-maximal inhibitory concentration (IC50) was performed using a 10-point dose-response curve. The starting concentration was 10 μM, and it was serially diluted 3-fold, in DMSO. […] Using the Hit Hunter® assay (CALCRL-RAMP1 cAMP assay in the antagonist mode; https://www.discoverx.com/products/cell-line/cho-k1-calcrl-ramp1-gs-cell-line-95-0164c2), the eight compounds in Table 1 were assayed side-by-side once, and the IC50 was derived based on the standard assay of duplicate samples of a ten-point curve. In this homogenous, non-imaging assay, the activation of CLR/RAMP1 signaling was evaluated using the Enzyme Fragment Complementation (EFC) technology with β-galactosidase (β-Gal) as the functional reporter. The enzyme was split into two complementary portions: an enzyme acceptor and an enzyme donor. The enzyme donor is fused to cAMP and it competes with cAMP generated by cells
# For binding to a cAMP-specific antibody. Active β-Gal is formed by complementation of exogenous enzyme acceptor to any unbound enzyme donor-cAMP. The active enzyme then converted a chemiluminescent substrate to generate a signal. Briefly, cAMP Hunter cell lines with the select receptor were expanded from freezer stocks ([Bradley and McLoughlin, 2009]), and cells were seeded in a total volume of 20 μL into 384-well microplates and incubated at 37°C for the appropriate time. […] Intermediate dilution of samples was performed to generate 4X sample in the assay buffer. Before the assay, media was aspirated from cells and replaced with 10 μL 1:1 HBSS/Hepes:cAMP XS + Ab reagent, and 5 μL of 4X compound was added to the cells and incubated for 30 min. […] Vehicle concentration was 1%.
# The chemiluminescent signal was read with a PerkinElmer chemiluminescent plate reader. The compound activity was analyzed using a CBIS data analysis suite (ChemInnovation, CA). The percentage inhibition was calculated using the following formula: % Inhibition = 100% x (1 - (mean RLU of test sample - mean RLU of vehicle control)/(mean RLU of EC80 control - mean RLU of vehicle control)). Data were normalized to the maximal and minimal response observed in the presence of EC80 agonist and vehicle.
Gel-forming ability [1],SMILES,other results
N,CCCCCCCCCCCCCCCC(=O)N[C@@H](CCCCN)C(=O)N[C@H](C(=O)N[C@@H](CCC(N)=O)C(=O)N[C@@H](CCCCN)C(=O)N[C@@H](CCCNC(N)=O)C(=O)N[C@@H](CO)C(=O)N[C@@H](C)C(=O)N1CCC[C@H]1C(=O)N[C@H](C(=O)N[C@@H](CC(=O)O)C(=O)N1CCC[C@H]1C(=O)N[C@@H](CO)C(=O)N[C@@H](CO)C(=O)N1CCC[C@H]1C(=O)N[C@@H](Cc1c[nH]cn1)C(=O)N[C@@H](CO)C(=O)N[C@@H](Cc1ccc(O)cc1)C(N)=O)C(C)C)C(C)C [ADE651D] (Palmitoyl-KVQK[Cit]SAPVDPSSPHSY-NH2),–
N,CCCCCCCCCCCCCCCC(=O)N[C@@H](CCCCN)C(=O)N[C@H](C(=O)N[C@@H](CCC(N)=O)C(=O)N[C@@H](CCCCN)C(=O)N[C@@H](CCCC)C(=O)N[C@@H](CO)C(=O)N[C@@H](C)C(=O)N1CCC[C@H]1C(=O)N[C@H](C(=O)N[C@@H](CC(=O)O)C(=O)N1CCC[C@H]1C(=O)N[C@@H](CO)C(=O)N[C@@H](CO)C(=O)N1CCC[C@H]1C(=O)N[C@@H](Cc1c[nH]cn1)C(=O)N[C@@H](CO)C(=O)N[C@@H](Cc1ccc(O)cc1)C(N)=O)C(C)C)C(C)C [ADE651F],–
–,"NCCCC[C@H](NC(=O)[C@@H](Cc1cc(Br)c(O)c(Br)c1)NC(=O)N1CCC(N2Cc3ccccc3NC2=O)CC1)C(=O)N1CCN(c2ccncc2)CC1 [BIBN4096, reference compound]",Maximum response [2]: 100.5 % of positive control
Y,CCCCCCCCCCCCCCCC(=O)N[C@@H](CCCCN)C(=O)N[C@H](C(=O)N[C@@H](CCC(N)=O)C(=O)N[C@@H](CCCCN)C(=O)N[C@@H](CCS(C)(=O)=O)C(=O)N[C@@H](CO)C(=O)N[C@@H](C)C(=O)N1CCC[C@H]1C(=O)N[C@H](C(=O)N[C@@H](CC(=O)O)C(=O)N1CCC[C@H]1C(=O)N[C@@H](CO)C(=O)N[C@@H](CO)C(=O)N1CCC[C@H]1C(=O)N[C@@H](Cc1c[nH]cn1)C(=O)N[C@@H](CO)C(=O)N[C@@H](Cc1ccc(O)cc1)C(N)=O)C(C)C)C(C)C [ADE651J] (Palmitoyl-KVQK[Met(O2)]SAPVDPSSPHSY-NH2),"IC50 ([2]; CHO-K1 CALCRL-RAMP1 cAMP Hunter cells, human β-CGRP at EC80 (0.37nM), 30 min pre-incubation, 10-point curve from 10 μM, 3-fold dilutions, duplicate samples, assayed side-by-side once, read-out: IC50 for antagonizing CGRP-induced CLR/RAMP1 signaling): 0.9 nM; Maximum response [2]: 100.4 % of positive control; Antagonistic activity toward CGRP-mediated CLR/RAMP1 signaling compared to ADE651 ([2]; result in words): retained the potent antagonistic activity"
Y,CCCCCCCCCCCCCCCC(=O)N[C@@H](CCCCN)C(=O)N[C@H](C(=O)N[C@@H](CCC(N)=O)C(=O)N[C@@H](CCCCNC)C(=O)N[C@@H](CC(C)C)C(=O)N[C@@H](CO)C(=O)N[C@@H](C)C(=O)N1CCC[C@H]1C(=O)N[C@H](C(=O)N[C@@H](CC(=O)O)C(=O)N1CCC[C@H]1C(=O)N[C@@H](CO)C(=O)N[C@@H](CO)C(=O)N1CCC[C@H]1C(=O)N[C@@H](Cc1c[nH]cn1)C(=O)N[C@@H](CO)C(=O)N[C@@H](Cc1ccc(O)cc1)C(N)=O)C(C)C)C(C)C [ADE651L],–
N,CCCCCCCCCCCCCCCC(=O)N[C@@H](CCCCN)C(=O)N[C@H](C(=O)N[C@@H](CCC(N)=O)C(=O)N[C@@H](CCCCN)C(=O)NCCC(=O)N[C@@H](CO)C(=O)N[C@@H](C)C(=O)N1CCC[C@H]1C(=O)N[C@H](C(=O)N[C@@H](CC(=O)O)C(=O)N1CCC[C@H]1C(=O)N[C@@H](CO)C(=O)N[C@@H](CO)C(=O)N1CCC[C@H]1C(=O)N[C@@H](Cc1c[nH]cn1)C(=O)N[C@@H](CO)C(=O)N[C@@H](Cc1ccc(O)cc1)C(N)=O)C(C)C)C(C)C [ADE651P] (Palmitoyl-KVQK[βAla]SAPVDPSSPHSY-NH2),–
N,CCCCCCCCCCCCCCCC(=O)N[C@@H](CCCCN)C(=O)N[C@H](C(=O)N[C@@H](CCC(N)=O)C(=O)N[C@@H](CCCCN)C(=O)N1C[C@H](O)C[C@H]1C(=O)N[C@@H](CO)C(=O)N[C@@H](C)C(=O)N1CCC[C@H]1C(=O)N[C@H](C(=O)N[C@@H](CC(=O)O)C(=O)N1CCC[C@H]1C(=O)N[C@@H](CO)C(=O)N[C@@H](CO)C(=O)N1CCC[C@H]1C(=O)N[C@@H](Cc1c[nH]cn1)C(=O)N[C@@H](CO)C(=O)N[C@@H](Cc1ccc(O)cc1)C(N)=O)C(C)C)C(C)C [ADE651E] (Palmitoyl-KVQK[Hyp]SAPVDPSSPHSY-NH2),–
N,CCCCCCCCCCCCCCCC(=O)N[C@@H](CCCCN)C(=O)N[C@H](C(=O)N[C@@H](CCC(N)=O)C(=O)N[C@@H](CCCCN)C(=O)NCCCCCC(=O)N[C@@H](CO)C(=O)N[C@@H](C)C(=O)N1CCC[C@H]1C(=O)N[C@H](C(=O)N[C@@H](CC(=O)O)C(=O)N1CCC[C@H]1C(=O)N[C@@H](CO)C(=O)N[C@@H](CO)C(=O)N1CCC[C@H]1C(=O)N[C@@H](Cc1c[nH]cn1)C(=O)N[C@@H](CO)C(=O)N[C@@H](Cc1ccc(O)cc1)C(N)=O)C(C)C)C(C)C [ADE651B] (Palmitoyl-KVQK[Ahx]SAPVDPSSPHSY-NH2),–
Y,CCCCCCCCCCCCCCCC(=O)N[C@@H](CCCCN)C(=O)N[C@H](C(=O)N[C@@H](CCC(N)=O)C(=O)N[C@@H](CCCCNC(=O)CCS)C(=O)N[C@@H](CC(C)C)C(=O)N[C@@H](CO)C(=O)N[C@@H](C)C(=O)N1CCC[C@H]1C(=O)N[C@H](C(=O)N[C@@H](CC(=O)O)C(=O)N1CCC[C@H]1C(=O)N[C@@H](CO)C(=O)N[C@@H](CO)C(=O)N1CCC[C@H]1C(=O)N[C@@H](Cc1c[nH]cn1)C(=O)N[C@@H](CO)C(=O)N[C@@H](Cc1ccc(O)cc1)C(N)=O)C(C)C)C(C)C [ADE651O],–
N,CCCCCCCCCCCCCCCC(=O)N[C@@H](CCCCN)C(=O)N[C@H](C(=O)N[C@@H](CCC(N)=O)C(=O)N[C@@H](CCCCN)C(=O)N[C@@H](CCCN)C(=O)N[C@@H](CO)C(=O)N[C@@H](C)C(=O)N1CCC[C@H]1C(=O)N[C@H](C(=O)N[C@@H](CC(=O)O)C(=O)N1CCC[C@H]1C(=O)N[C@@H](CO)C(=O)N[C@@H](CO)C(=O)N1CCC[C@H]1C(=O)N[C@@H](Cc1c[nH]cn1)C(=O)N[C@@H](CO)C(=O)N[C@@H](Cc1ccc(O)cc1)C(N)=O)C(C)C)C(C)C [ADE651G] (Palmitoyl-KVQK[Orn]SAPVDPSSPHSY-NH2),–
N,CCCCCCCCCCCCCCCC(=O)N[C@@H](CCCCN)C(=O)N[C@H](C(=O)N[C@@H](CCC(N)=O)C(=O)N[C@@H](CCCCN)C(=O)N[C@@H](CCN)C(=O)N[C@@H](CO)C(=O)N[C@@H](C)C(=O)N1CCC[C@H]1C(=O)N[C@H](C(=O)N[C@@H](CC(=O)O)C(=O)N1CCC[C@H]1C(=O)N[C@@H](CO)C(=O)N[C@@H](CO)C(=O)N1CCC[C@H]1C(=O)N[C@@H](Cc1c[nH]cn1)C(=O)N[C@@H](CO)C(=O)N[C@@H](Cc1ccc(O)cc1)C(N)=O)C(C)C)C(C)C [ADE651K] (Palmitoyl-KVQK[Dab]SAPVDPSSPHSY-NH2),–
N,CCCCCCCCCCCCCCCC(=O)N[C@@H](CCCCN)C(=O)N[C@H](C(=O)N[C@@H](CCC(N)=O)C(=O)N[C@@H](CCCCN)C(=O)N[C@@H](CC)C(=O)N[C@@H](CO)C(=O)N[C@@H](C)C(=O)N1CCC[C@H]1C(=O)N[C@H](C(=O)N[C@@H](CC(=O)O)C(=O)N1CCC[C@H]1C(=O)N[C@@H](CO)C(=O)N[C@@H](CO)C(=O)N1CCC[C@H]1C(=O)N[C@@H](Cc1c[nH]cn1)C(=O)N[C@@H](CO)C(=O)N[C@@H](Cc1ccc(O)cc1)C(N)=O)C(C)C)C(C)C [ADE651I] (Palmitoyl-KVQK[Abu]SAPVDPSSPHSY-NH2),–
N,CCCCCCCCCCCCCCCC(=O)N[C@@H](CCCCN)C(=O)N[C@H](C(=O)N[C@@H](CCC(N)=O)C(=O)N[C@@H](CCCCN)C(=O)NC(C)(C)C(=O)N[C@@H](CO)C(=O)N[C@@H](C)C(=O)N1CCC[C@H]1C(=O)N[C@H](C(=O)N[C@@H](CC(=O)O)C(=O)N1CCC[C@H]1C(=O)N[C@@H](CO)C(=O)N[C@@H](CO)C(=O)N1CCC[C@H]1C(=O)N[C@@H](Cc1c[nH]cn1)C(=O)N[C@@H](CO)C(=O)N[C@@H](Cc1ccc(O)cc1)C(N)=O)C(C)C)C(C)C [ADE651A] (Palmitoyl-KVQK[Aib]SAPVDPSSPHSY-NH2),–
